The values below come from patent publication US20030068615A1, “Polypeptides that bind HIV gp120 and related nucleic acids, antibodies, compositions, and methods of use” (priority 1999, published 2003).

Read-outs that look alike come from different tables or passages of the source.

For the assay, the target named is HIV-1LAI envelope gp120 (Human immunodeficiency virus type 1 group M subtype B, UniProt P03377). Format: binding. The conditions noted are these: for Binding Results For Window Length (counts bound-background), 9 / Binding Results For Window Length (counts bound-background), 12 / Binding Results For Window Length (counts bound-background), 15 / Binding Results For Window Length (counts bound-background), 18: STRL33 amino terminus; for Binding Results For Window Length (counts bound-background), 9: 9-mer starting at the first residue of the printed sequence; for Binding Results For Window Length (counts bound-background), 12: 12-mer starting at the first residue of the printed sequence; for Binding Results For Window Length (counts bound-background), 15: 15-mer starting at the first residue of the printed sequence; for Binding Results For Window Length (counts bound-background), 18: 18-mer starting at the first residue of the printed sequence; for number of radioactive decays (counts) counted: human CD4 21-mer scan, empty control 2075; for Counts per 20′ Average-background: CCR5 18-mer scan, radiolabeled HIV-1LAI gp120.

Where [1] appears, read: Panel D, 9-mers and 12-mers of CD4, empty control […].
Where [2] appears, read: Panel B, 15-mers and 18-mers of CD4, empty control 575.
Setting [3] is: STRL33 18-mer scan, background subtracted, first of two count columns.
Setting [4] is: STRL33 18-mer scan, background subtracted, second of two count columns.
Where [5] appears, read: CXCR4 18-mer scan, background subtracted, empty control 0.
Setting [6] is: CXCR4 18-mer scan, empty control 412.

For the sequence GFSSFNDSSQEEEQAFLQ, for the setting “background subtracted”, the “Binding Results For Window Length (counts bound-background), 9” value came to 171 counts; the “Binding Results For Window Length (counts bound-background), 12” value is on record as 480 counts; the “Binding Results For Window Length (counts bound-background), 15” value came out at 270 counts; the “Binding Results For Window Length (counts bound-background), 18” value is listed as 1639 counts.

Regarding “GKLHQEVNLVVMRATQLQKNL [human CD4 306-326]”, the “number of radioactive decays (counts) counted” value (from here on “number of radioactive decays”) is 1776 counts. With GLHYTCSSEFPYSQYQFW, the “Counts per 20′ Average-background” value (background subtracted) is reported as 301 counts per 20′.

In the case of GLNNCSSSNRLDQAMQVT [CCR5 segment 265-], for the setting “background subtracted”, the “Counts per 20′ Average-background” value was −31 counts per 20′. On to GLTANSDTH, for which the “COUNTS of radiolabeled gp120 retained” value under setting [1] was determined as 481 counts. Take GLTANSDTHLLQ: the “COUNTS of radiolabeled gp120 retained” value under setting [1] came to 574 counts. Regarding GLTANSDTHLLQGQS, the “COUNTS of radiolabeled gp120 retained” value under setting [2] was 532 counts.

For GLTANSDTHLLQGQSLTL, the “COUNTS of radiolabeled gp120 retained” value under setting [2] is 572 counts. For “GLVGNSLVLVISIFYHKL [STRL33 segment 45-62]”, the “radioactive counts recorded in twenty minutes” value (shortened to “radioactive counts recorded”) under setting [3] was 164.5 counts and the “radioactive counts recorded” value under setting [4] came to 95.5 counts. “GLVILVMGYQKKLRSMTD [CXCR4 segment 57-74]”: the “radioactive counts recorded” value under setting [5] was 157 counts and the “radioactive counts recorded” value under setting [6] was 569 counts. Take GMWQCLLSDSGQVLLESNIKV: the “number of radioactive decays” value turned out to be 4185 counts. Turning to GNFLCKAVHVIYTVNLYS, the “radioactive counts recorded” value by setting is: under setting [5], 231 counts; under setting [6], 643 counts. GNFPLIIKN: the “COUNTS of radiolabeled gp120 retained” value under setting [1] stood at 600 counts. In the case of GNFPLIIKNLKI, the “COUNTS of radiolabeled gp120 retained” value under setting [1] is listed as 547 counts.

Consider GNFPLIIKNLKIEDS, for which the “COUNTS of radiolabeled gp120 retained” value under setting [2] came out at 624 counts. As to GNFPLIIKNLKIEDSDTY, under setting [2], the “COUNTS of radiolabeled gp120 retained” value is given as 557 counts. Turning to GNTMCQLLTGLYFIGFFS [CCR5 segment 97-], the “Counts per 20′ Average-background” value (background subtracted) turned out to be 941 counts per 20′. For GQSLTLTLE, the “COUNTS of radiolabeled gp120 retained” value under setting [1] was 777 counts. “GQVLLESNIKVLPTWSTPVQP [human CD4 376-396]”: the “number of radioactive decays” value is recorded as 2089 counts. Take “GSGDYDSMKEPCFREENA [CXCR4 segment 17-34]”: the “radioactive counts recorded” value under setting [5] is listed as −28 counts and the “radioactive counts recorded” value under setting [6] came to 384 counts. For the sequence “GVSNQWKSSEDNSKTFSA [STRL33 segment 313-330]”, the “radioactive counts recorded” value by setting is: under setting [3], 208.5 counts; under setting [4], 306.5 counts. For the sequence GVVTSVITWVVAVFASLP, the “Counts per 20′ Average-background” value (background subtracted) turned out to be 69 counts per 20′. GYHDEAISTVVLATQMTL: the “radioactive counts recorded” value was determined as 754.5 counts under setting [3] and 1181.5 counts under setting [4].

On to HCCINPIIYAFVGEKFRN [CCR5 segment 289-], for which the “Counts per 20′ Average-background” value (background subtracted) was 200 counts per 20′. As to HDYHEDYGFSSFNDSSQE, for the setting “background subtracted”, the “Binding Results For Window Length (counts bound-background), 9” value was determined as 708 counts; the “Binding Results For Window Length (counts bound-background), 12” value was 1427 counts; the “Binding Results For Window Length (counts bound-background), 15” value amounted to 1772 counts; the “Binding Results For Window Length (counts bound-background), 18” value is 1500 counts. In the case of HEDYGFSSFNDSSQEEHQ, under “background subtracted”, the “Binding Results For Window Length (counts bound-background), 9” value was determined as 729 counts; the “Binding Results For Window Length (counts bound-background), 12” value was 1077 counts; the “Binding Results For Window Length (counts bound-background), 15” value was 947 counts; the “Binding Results For Window Length (counts bound-background), 18” value amounted to 537 counts. “HEWVFGQVMCKSLLGIYT [STRL33 segment 93-110]”: the “radioactive counts recorded” value reads like this: under setting [3], 3391.5 counts; under setting [4], 3466.5 counts. Take HFPYSQYQFWKNFQTLKI: the “Counts per 20′ Average-background” value (background subtracted) came out at 1008 counts per 20′. For the sequence “HKWISITEALAFFHCCLN [CXCR4 segment 281-298]”, the “radioactive counts recorded” value under setting [5] stood at 163 counts and the “radioactive counts recorded” value under setting [6] was 575 counts.
